For orientation: CLint scaled means a measure of how fast metabolising enzymes remove a compound, apart from limits set by blood flow. Higher therefore signals rapid turnover. As a reminder, the half-life is how long it takes for the measured level to halve. The low end stands for fast loss, the high end for slow loss. As usually defined, the microsomal CLint is a measure of how fast metabolising enzymes remove a compound, apart from limits set by blood flow. High values mean faster metabolism, low ones greater metabolic stability.

Data on 1 molecule can be found in article PMC7156724, “Potent BRD4 inhibitor suppresses cancer cell-macrophage interaction” (Nature Communications, 2020).

This data set in a line: Metabolic stability assay, human liver microsomes. Particulars: for Remaining in Human liver microsomes (Sup Fig.6e): in % (unit assumed). Here is the method: 7. Metabolic stability assay. The metabolic profile of NHWD-870 was determined using mouse, rat, dog, monkey, and human liver microsomes using the protocols […]
No. Compound ID Exat Mass Stock Conc.
1) 100 mM potassium phosphate buffer, PH7.4; 2) 10mM MgCI2
1) Intermediate solution: Dilute 5 μL of compound or control from stock solution (10 mM) with 45 uL DMSO,then mixed with 450 μL 1:1 Methanol/Water (Conc.: 10 0 […]
2) Working solution: Dilute 50 μL from intermediate solution with 450 μL 100 mM potassium phosphate buffer (Conc.: 10 μM, 4.5%MeOH)
(3) NADPH regenerating system (final Isocitric dehydrogenase conc.= 1 unit/mL at […]
1) β-Nicotinamide adenine dinucleotide phosphate, Vendor: sigma Cat. No. N0505
2) Isocitric acid, Vendor: Sigma Cat. No. I1252
3) Isocitric dehydrogenase, Vendor: sigma Cat. No. I2002
(4) Liver microsome solution preparation (final concentration o f 0.5 mg protein/mL) […]
Cold ACN including 100 ng/mL Tolbutamide and 100 ng/mL Labetalol as internal […]
1) Add 10 μL compound or control working solution/well to all plates (T0, T5, T10, T20, T30, T60, NCF60) except matrix blank.
2) Dispense 680 μL/well microsome solution to 96-well plate as reserv oir according to […]
plate map. Then add 80 μL/well to every plate by Apricot, incubate the mixture of microsome solution and compound at 37℃ for about 10 min.
3) Add 10 μL 100 mM potassium phosphate buffer/well to NCF60, incubate at 37℃, […]
4) After pre-warming, dispense 90 μL/well NADPH regenerating system to 96-well plate as reservoir according to the plate map. Then add 10 μL/well to every plate by Apricot to start reaction.
5) Incubate at 37℃, start timer 2.
6) Add 300 (μL/well) stop solution (cold in 4℃, including 100 ng/mL Tolbutamide and 100 ng/mL Labetalol) to terminate the reaction.
7) The sampling plates are shaked for approx 10 min.
8) Samples are centrifuged at 4000 rpm for 20 min under 4℃.
9) While centrifuging, load 8×new 96-well plate with 300 μL HPLC water, then transfer 100 μL supernatant, mixed for LC/MS/MS.
Use equation of first order kinetics to calculate t1/2 and Clin t(mic): […]
Equation of first order kinetics: […]
Background: Liver microsomes are a subcellular fraction often used to study metabolism.

Where [1] appears, read: human, liver microsomes, pH 7.4.

Turning to `Cc1nnn(C)c1-c1cnc2c3c4cnn(C)c4ccc3n([C@H](c3ccccc3)C3CCOCC3)c2c1` [NHWD-870], where the note is “human liver microsomes”, the “Remaining (T=60min)” value is on record as 23.6%. In addition, the “Remaining (*NCF=60min)” value (human liver microsomes, no cofactor) is reported as 74.4%. The CLint scaled at 1 µM under setting [1] was 45.3 mL/min/kg. For the same molecule, the half-life at 1 µM is 27.6 min under setting [1] and 21 to 39 min (mouse, rat, dog, monkey, human, liver microsomes, pH 7.4). This molecule also showed an intrinsic clearance (microsomal CLint) at 1 µM (human, microsomes, pH 7.4) of 50.3 µL/min/mg. The “Remaining in Human liver microsomes (Sup Fig.6e)” value runs as follows: (time 0) 100; (time 5) 96.274; (time 10) 76.421; (time 20) 52.125; (time 30) 39.904; (time 60) 23.628.
